Measured values as given in patent US11576979B2, “Pyrrolobenzodiazepine prodrugs and antibody conjugates thereof” (GENENTECH, INC., priority 2016, dated 2023).
pEC50, pIC50: −log10 of the molar value. Read-outs that look alike come from different tables or passages of the source.

How the values were obtained:
[1] = system: MDA-MB-453 tumor cell line; assay: in vitro tumor cell killing assay, 3 days (Example 13); type: cell-based; settings: Homo sapiens, MDA-MB-453, 72 h
Protocol: The toxicity of various PBD monomer and dimer boronic acid prodrug compounds were evaluated for cell toxicity. In the in vitro tumor cell killing assay, the cells were added to each well of 96-well microtiter plates at 8,000 cells per well and were incubated overnight at 37° C. in a humidified atmosphere of 5% CO2. The cells were exposed to various concentration of the indicated prodrug, positive control and negative control compounds. Where silvestrol was evaluated, a 1:3 serial dilution was used. After incubation for 3 days, Cell titer-Glo reagent (Promega, Madison Wis.) was added to the wells at 100 μL per well followed by a 10-minute incubation at room temperature, and the luminescent signal was measured using a Packard/Perkin-Elmer TopCount.
The toxicity of PBD monomer boronic acid prodrug 1 was evaluated against MDA-MB-453 tumor cell line for cell viability. PBD monomer control 1 was used as a positive control and PBD monomer control 2 was used as a negative control. The toxicity study was repeated wherein the PBD prodrug and controls were administered in combination with silvestrol. FIG. 15C depicts a plot of MDA-MB-453 cell kill versus drug concentration in μM three days after exposure to: (i) a PBD monomer control; (ii) a PBD monomer control having a benzyl formate moiety at the N10 PBD position; and (iii) a PBD monomer boronic acid prodrug. […]

DT Diaphorase = molecular target: T1, DT Diaphorase (Homo sapiens, UniProt P15559); assay: in vitro DT diaphorase activated drug release assay (NADPH depletion); type: biochemical; settings: in <5 min
T1 construct: purchased Sigma D1315
T1 sequence (P15559 whole entry): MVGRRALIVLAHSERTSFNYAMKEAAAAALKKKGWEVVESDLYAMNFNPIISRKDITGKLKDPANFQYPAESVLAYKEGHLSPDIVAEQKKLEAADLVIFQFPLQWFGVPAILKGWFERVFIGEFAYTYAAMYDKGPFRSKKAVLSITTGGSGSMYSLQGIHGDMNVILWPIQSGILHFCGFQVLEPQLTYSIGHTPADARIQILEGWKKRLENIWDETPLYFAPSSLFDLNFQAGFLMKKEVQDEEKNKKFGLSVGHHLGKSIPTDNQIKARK
Protocol: An in vitro DT diaphorase activated drug release assay was used to measure NADPH depletion. DT diaphorase activated release of Norfloxacin and Payload (PBD) was measured by the in vitro depletion of NADPH. The assay method was modified from the absorbance measurement of NADPH at A340 (Osman et. al, Chemico-Biological Interactions 147 (2004) 99-108) due to the interference of compounds. The depletion of NADPH was measured by monitoring the decrease of fluorescence intensity of NADPH at 480 nm after being excited at […]. […] Prior to assay, dilute the stock to 1 mM as the 5× working solution; (5) DT Diaphorase specific Inhibitor: prepare 40 mM stock of Dicumarol (Sigma, Cat #M1390-5G, MW=336.29) in 0.13 N NaOH, stored at 4° C. Dilute the stock to 250 uM as the 5× working solution; (6) Compounds: dilute the Norfloxacin and PBD conjugated compounds in assay buffer to 250 uM as the 5× working solution; and (7) 384 well black plate with clear bottom. For the assay procedure: (1) The reaction mix containing 0.5 uM DT-D, 50 uM compound, […] NADPH was set up in a 384 well plate at 50 ul/well. For the control with DT Diaphorase inhibitor, Dicumarol was added in the reaction mix at final 50 uM for each compound. Reaction mix containing NADPH and compound only was also added as the baseline controls. The DT Diaphorase was added in the last step; and (2) The reaction mixes were incubated at room temperature for 5, 30, 90 min. The fluorescence intensity (RFU) of DNAPH was recorded on M1000 plate reader (Tecan) with excitation at 340 nm and emission at 480 nm. For data analysis, data was analyzed and plotted using Prism GraphPad 6. The depletion of NADPH was calculated by the formula below at reaction time point at 90 min wherein: % NADPH depletion=[…].

KPL-4 Cell line = assay: Cell viability, DTD-activated quinone prodrugs (Example 15); type: cell-based; settings: KPL4, read-out: IC50 Potency (nM)
Protocol: (§1) The toxicity of PBD dimer diaphorase prodrug 1, PBD monomer diaphorase prodrug 2, PBD dimer control 1 and PBD monomer control 1 were evaluated against KPL-4 and WSU cell lines for cell viability. The KPL-4 cell line is was a high DTD cell line characterized by NQO1 nRPKM of 839 and the WSU cell line was a low DTD cell line characterized by a NQO1 nRPKM of 1.36. The IC50 ratios are based on the prodrug IC50 value relative to the PBD dimer control.

WSU Cell line = assay: as above; type: cell-based; settings: read-out: IC50 Potency (nM)
Protocol: as §1

HCT-116 = assay: CELLTITER GLO cell proliferation assay (Example 6); type: cell-based; settings: Homo sapiens
Protocol: (§2) The toxicity of PBD monomer disulfide prodrugs and diaphorase prodrugs were evaluated against KPL-4, WSU-DLCL2, HCT-116, HCC1395 and Jurkat cell cultures. […] KPL-4 cells further have a high expression of DTD on the order of about 839 nRPKM (where nRPKM refers to normalized reads per Kb of transcript length per million mapped read).
(§3) Potency of the disulfide and DT-diaphorase prodrugs was measured by a cell proliferation assay employing the following protocol (CELLTITER GLO™ Luminescent Cell Viability Assay, Promega Corp.). First, an aliquot of 40 ul of cell culture containing about 8000 cells of WSU-DLCL2 cells (low NQO1 gene and GSH level), 4000 cells of KPL-4 (high NQO1 gene and GSH level), HCT-116 cells, HCC1395 cells or Jurkat cells in RPMI-1640 culture medium (supplemented with 10% fetal bovine serum, 2 mM glutamine, 50 uM cystine, and 0.015 g/L L-methionine) was deposited in each well of a 384-well flat clear bottom white polystyrene tissue culture-treated microplates (Corning, N.Y.). Second, control wells were prepared containing medium with and without cells. Third, compounds with and without disulfide or DT-diaphorase prodrugs (n=3) were added to the experimental wells using ECHO acoustic liquid handling technology (Labcyte Inc, Sunnyvale, Calif.) to create a 10-point dose-response curve in triplicate with 1:3× serial dilution. Fourth, cells were cultured in a humidified incubator set at 37° C. and maintaining an atmosphere of 5% CO2. Fifth, the plates were equilibrated to room temperature for approximately 30 minutes. Sixth, a volume of CELLTITER GLO™ Reagent equal to the volume of cell culture medium present in each well was added. Seventh, the contents were mixed for 10 minutes on an orbital shaker in the dark to induce cell lysis. Eighth, the plate was incubated at room temperature for 30 minutes to stabilize the luminescence signal. Ninth, luminescence was recorded and reported in graphs as % activity where RLU (relative luminescence units) was normalized to controls (no compound control minus no cell control). Tenth, data was plotted as individual points for each replicate (n=3) for each antibody as the mean of luminescence for each set of replicates, with standard deviation error bars.

KPL-4 = assay: CELLTITER GLO cell proliferation assay (Example 6); type: cell-based; settings: data in parenthesis = repeat evaluations
Protocol: as §2, §3

WSU-DLCL2 = assay: CELLTITER GLO cell proliferation assay (Example 6); type: cell-based; settings: data in parenthesis = repeat evaluations
Protocol: as §2, §3

HCC1395 = assay: CELLTITER GLO cell proliferation assay (Example 6); type: cell-based; settings: Homo sapiens, Table 4, read-out: IC50 potency HCC1395
Protocol: as §2, §3

Jurkat = assay: CELLTITER GLO cell proliferation assay (Example 6); type: cell-based; settings: Homo sapiens, Table 4, read-out: IC50 potency Jurkat
Protocol: as §2, §3

[2] = system: double strand DNA Oligos 1 and 2; assay: DNA oligo binding, LC/MS/UV; settings: 100 uM compound, 100 uM DNA, 1 hour, 37 C
Protocol: For DNA binding determination, the compounds were incubated at 100 μM with 100 μM double strand DNA Oligos 1 and 2 for 1 hour in 10 mM Bis-Tris, pH 7.1 at 37° C. The single strand DNA Oligos (5′-TATAGAATCTATA-3′ and 3′-ATATCTTAGATAT-5′) were synthesized at Genentech. The samples were analyzed by LC/MS/UV (210-450 nm) on Sciex TripleTOF 5600 on a Hypersil Gold C18 column (100×2.1, 1.9 Thermo Scientific). The column was eluted at 0.4 mL/min by a gradient of buffer A (50 mM hexafluoro-isopropanol and 15 mM diisopropylethylamine) to buffer B (50% A and 50% of 1:1 methanol:acetonitrile), 5% 0-0.5 min, 5-25% B 0.5-25 min, 25-95% B 25-40 min, and to 95% B 40-42 min. The % remaining was an average of the starting DNA oligos remaining in incubations (n=2). The products were characterized by LC/MS in a negative ESI ion mode.

SK-BR-3 = assay: CellTiter-Glo toxicity, 3 days (Example 7); type: cell-based; settings: Homo sapiens, SK-BR-3, 72 h; 3 days; read-out: SK-BR-3 IC50
Protocol: The toxicity of PBD monomer disulfide prodrugs 1 to 4, PBD dimer disulfide prodrugs 1 and 4, PBD monomer control 1 and PBD dimer control 1 were evaluated against SK-BR-3 cell cultures. […] The HER2-positive breast cancer cell line, SK-BR-3, was obtained internally at Genentech after having been verified by sequence analysis. The cells were grown at 37 Celsius in DMEM+10% FBS supplemented with 2 mM L-glutamine for the duration of this assay. On the first day of the experiment, designated “Day −1”, SK-BR-3 cells were harvested from tissue culture flasks, counted, and then seeded into 96-well plates at a concentration of 7,500 cells per well. The next day, designated “Day 0”, cell culture media was removed from the cells and replaced with 100 uL of fresh media containing a serial dilution (1:3) of the compounds in Table 5 below. The plates were then returned to the 37 Celsius incubator and allowed to incubate for 3 days. On “Day 3” of the assay, the plates were removed from the incubator and allowed to equilibrate to room temperature before adding 100 uL of room-temperature CellTiter-Glo reagent (Promega). The plates were then agitated at 300 rpm for 10 minutes. The luminescence signal generated from this reaction was recorded on an Envision plate reader (Perkin-Elmer). The data were arranged in Excel (Microsoft) and graphed in Kaleidagraph (Synergy Software).

Igrov-1 = assay: CellTiter-Glo toxicity, 4 days (Example 9); type: cell-based; settings: Homo sapiens, IGROV-1, 96 h, 4 days of drug incubation; Table 7A
Outline: (§4)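 Cells were seeded in 384-well plates, dosed 24 h later and incubated with drug for 4 days. Viability was read as ATP luminescence by CellTiter-Glo and normalised to untreated controls. IC50 is the concentration giving 50% of maximum cell killing.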

UACC-257 = assay: CellTiter-Glo toxicity, 4 days (Example 9); type: cell-based; settings: Homo sapiens, UACC-257, 96 h, 4 days of drug incubation; Table 7A
Outline: as §4

[3] = KPL4, Table 4, read-out: IC50 potency KPL-4
[4] = Homo sapiens, WSUDLCL2, Table 4, read-out: IC50 potency WSU-DLCL2

C=C1C[C@H]2C(O)N(C(=O)OCc3ccc(B4OC(C)(C)C(C)(C)O4)cc3)c3cc(OC)c(OC)cc3C(=O)N2C1 (some centres unmarked) [PBD monomer boronic acid prodrug 1]
pEC50 [1]: 5.73

C=C1C[C@H]2C(O)N(C(=O)OCc3cc4c(n3C)C(=O)C=C(OC)C4=O)c3cc(OC)c(OC)cc3C(=O)N2C1 (some centres unmarked) [PBD monomer diaphorase prodrug 2]
NADPH Dep. (DT Diaphorase): >90% in | IC50 (KPL-4 Cell line): 344 nM | IC50 (WSU Cell line): 575 nM | pIC50 (HCT-116; HCT-116, read-out: IC50 potency HCT-116): 6.65 | pIC50 (KPL-4; KPL4, read-out: IC50 potency KPL-4, Table 4): 6.46 | pIC50 (KPL-4; read-out: IC50 potency KPL-4, Table 4): 6.45 | pIC50 (WSU-DLCL2; Homo sapiens, WSUDLCL2, read-out: IC50 potency WSU-DLCL2, Table 4): 6.24 | pIC50 (WSU-DLCL2; read-out: IC50 potency WSU-DLCL2, Table 4): 6.54

C=C1C[C@H]2C=Nc3cc(OCCCCCOc4cc5c(cc4OC)C(=O)N4CC(=C)C[C@H]4C(O)N5C(=O)OCc4ccc(NC(=O)OCc5cc6c(n5C)C(=O)C=C(OC)C6=O)cc4)c(OC)cc3C(=O)N2C1 (some centres unmarked) [PBD dimer diaphorase prodrug 2]
pIC50 (HCC1395): 8.01 | pIC50 (Jurkat): 8.90 | pIC50 (KPL-4; [3]): 8.00 | pIC50 (WSU-DLCL2; [4]): 9.10

C=C1C[C@H]2C=Nc3cc(OCCCCCOc4cc5c(cc4OC)C(=O)N4CC(=C)C[C@H]4C(O)N5C(=O)OCC4(SSCC)CCC4)c(OC)cc3C(=O)N2C1 (some centres unmarked) [PBD dimer disulfide prodrug 1]
% DNA oligo remaining [2]: >99.5% | pIC50 (SK-BR-3): 8.62 | pIC50 (Igrov-1): 9.68 | pIC50 (UACC-257): 8.66

C=C1C[C@H]2C=Nc3cc(OCCCCCOc4cc5c(cc4OC)C(=O)N4CC(=C)C[C@H]4C(O)N5C(=O)OCc4cn(C)c5c4C(=O)C(OC)=CC5=O)c(OC)cc3C(=O)N2C1 (some centres unmarked) [PBD dimer diaphorase prodrug 3]
pIC50 (HCT-116; HCT-116, Table 4, read-out: IC50 potency HCT-116): 8.91 | pIC50 (KPL-4; [3]): 8.73 | pIC50 (WSU-DLCL2; [4]): 9.62
